Legend:
[1] = biological target: T1, RORγt (Homo sapiens, UniProt P51449); assay: Cofactor recruitment test (Alpha Screen, biotinylated SRC-1 peptide); format: biochemical; details: read-out: signal value inhibitory rate (%) at test compound 1 μM
T1 sequence (P51449 1-497 isoform P51449-2): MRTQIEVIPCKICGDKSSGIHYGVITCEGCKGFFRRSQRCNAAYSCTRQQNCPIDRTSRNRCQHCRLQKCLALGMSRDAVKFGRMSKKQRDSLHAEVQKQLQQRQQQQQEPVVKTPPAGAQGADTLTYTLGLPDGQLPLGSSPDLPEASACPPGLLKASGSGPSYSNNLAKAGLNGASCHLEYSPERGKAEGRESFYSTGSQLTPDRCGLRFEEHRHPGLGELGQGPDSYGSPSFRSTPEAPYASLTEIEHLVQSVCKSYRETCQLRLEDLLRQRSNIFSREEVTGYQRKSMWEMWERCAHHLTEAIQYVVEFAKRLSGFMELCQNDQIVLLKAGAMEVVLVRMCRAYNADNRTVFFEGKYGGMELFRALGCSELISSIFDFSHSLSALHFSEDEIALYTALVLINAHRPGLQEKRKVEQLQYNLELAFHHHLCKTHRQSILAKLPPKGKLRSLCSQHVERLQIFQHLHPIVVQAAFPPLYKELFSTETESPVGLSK
Protocol: Cofactor Recruitment Test
Cofactor recruitment test was performed by Alpha Screen (Histidine Detection Kit, PerkinElmer) method. First, a test compound was diluted with an assay buffer (50 mM Tris-HCl (pH 7.5), 50 mM KCl, 1 mM DTT, 0.1% BSA) and added to a 384 well plate by 5 μL. […] The mixture was stood in a dark place for 1 hr, and the signal value was measured by Envision (PerkinElmer).

[2] = biological target: T1, RORγt; assay: RORγt binding test (TR-FRET, fluorescent-labeled cholesterol); details: read-out: binding inhibitory rate (%) of fluorescent-labeled cholesterol to RORγt at test compound 1 μM
In short: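 His-tagged RORγt and BODIPY-cholesterol were incubated with compound for 20 min at room temperature in Tris-HCl pH 7.5, 100 mM NaCl, 1 mM DTT and 0.1% BSA. Terbium anti-His antibody was then added for a further 20 min.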

[3] = biological target: T1, RORγt; assay: Jurkat reporter test (human IL-17 ROR response element luciferase reporter); format: cell-based; details: Jurkat, read-out: luminescence level inhibitory rate (%) at test compound 3 μM
In short: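 Luminescence (Bright-Glo, 10 min, RT) was measured after overnight compound treatment of electroporated Jurkat cells (1350 V, 10 ms interval, 3 pulses). The reaction medium was RPMI with 10% lipid-reduced FCS, 10 mM HEPES (pH 7.5) and 5 μM lovastatin.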

SMILES	inhibition at 1 µM [1] [%]	inhibition at 1 µM [2] [%]	inhibition at 3 µM [3] [%]
COCc1ccc([C@@H](NC(=O)Cn2ccc(=O)[nH]c2=O)C(=O)Nc2ccc([Si](C)(C)C)c(F)c2)cc1 [Example 59, (2R)-2-(((2,4-dioxo-3,4-dihydropyrimidin-1(2H)-yl)acetyl)amino)-N-(3-fluoro-4-(trimethylsilyl)phenyl)-2-(4-(methoxymethyl)phenyl)acetamide]	96	102	99.2
COCc1ccc([C@@H](NC(=O)Cn2c(=O)cc[nH]c2=O)C(=O)Nc2ccc([Si](C)(C)C)c(F)c2)cc1 [Example 60, (2R)-2-(((2,6-dioxo-3,6-dihydropyrimidin-1 (2H)-yl)acetyl)amino)-N-(3-fluoro-4-(trimethylsilyl)phenyl)-2-(4-(methoxymethyl)phenyl)acetamide]	96.6	102	99.7
COCc1ccc([C@@H](NC(=O)Cn2nc(C)ccc2=O)C(=O)Nc2cc(F)c([Si](C)(C)C)c(F)c2)cc1 [Example 61, (2R)—N-(3,5-difluoro-4-(trimethylsilyl)phenyl)-2-(4-(methoxymethyl)phenyl)-2-(((3-methyl-6-oxopyridazin-1(6H)-yl)acetyl)amino)acetamide]	97	102	100
COCc1ccc([C@@H](NC(=O)CN2C(=O)CNC2=O)C(=O)Nc2ccc([Si](C)(C)C)c(F)c2)cc1 [Example 62, (2R)-2-(((2,5-dioxoimidazolidin-1-yl)acetyl)amino)-N-(3-fluoro-4-(trimethylsilyl)phenyl)-2-(4-(methoxymethyl)phenyl)acetamide]	96.3	99.9	97.8
COCc1ccc([C@@H](NC(=O)Cn2ccc(=O)cn2)C(=O)Nc2ccc([Si](C)(C)C)c(F)c2)cc1 [Example 63, (2R)—N-(3-fluoro-4-(trimethylsilyl)phenyl)-2-(4-(methoxymethyl)phenyl)-2-(((4-oxopyridazin-1(4H)-yl)acetyl)amino)acetamide]	95.1	103	99.7
COc1ccc([C@@H](NC(=O)N2CC[C@H](O)C2)C(=O)Nc2ccc([Si](C)(C)C)c(F)c2)cc1 [Example 64, (3S)—N-((1R)-2-((3-fluoro-4-(trimethylsilyl)phenyl)amino)-1-(4-methoxyphenyl)-2-oxoethyl)-3-hydroxypyrrolidine-1-carboxamide]	90.1	102	98.7
COCc1ccc([C@@H](NC(=O)N2CC[C@H](O)C2)C(=O)Nc2ccc([Si](C)(C)C)c(F)c2)cc1 [Example 65, (3S)—N-((1R)-2-((3-fluoro-4-(trimethylsilyl)phenyl)amino)-1-(4-(methoxymethyl)phenyl)-2-oxoethyl)-3-hydroxypyrrolidine-1-carboxamide]	94.3	102	98.5
COCc1ccc([C@@H](NC(=O)N2CC[C@@H](O)C2)C(=O)Nc2ccc([Si](C)(C)C)c(F)c2)cc1 [Example 66, (3R)—N-((1R)-2-((3-fluoro-4-(trimethylsilyl)phenyl)amino)-1-(4-(methoxymethyl)phenyl)-2-oxoethyl)-3-hydroxypyrrolidine-1-carboxamide]	94.6	103	98.5
COCc1ccc([C@@H](NC(=O)Cc2nnc(C)o2)C(=O)Nc2ccc([Si](C)(C)C)c(F)c2)cc1 [Example 67, (2R)—N-(3-fluoro-4-(trimethylsilyl)phenyl)-2-(4-(methoxymethyl)phenyl)-2-(((5-methyl-1,3,4-oxadiazol-2-yl)acetyl)amino)acetamide]	96	103	98.5
COCc1ccc([C@@H](NC(=O)[C@H]2CNC(=O)C2)C(=O)Nc2cc(F)c([Si](C)(C)C)c(F)c2)cc1 [Example 68, (3R)—N-((1R)-2-((3,5-difluoro-4-(trimethylsilyl)phenyl)amino)-1-(4-(methoxymethyl)phenyl)-2-oxoethyl)-5-oxopyrrolidine-3-carboxamide]	96.2	101	98.7
COCc1ccc([C@@H](NC(=O)N2CC(O)C2)C(=O)Nc2ccc([Si](C)(C)C)c(F)c2)cc1 [Example 69, N-((1R)-2-((3-fluoro-4-(trimethylsilyl)phenyl)amino)-1-(4-(methoxymethyl)phenyl)-2-oxoethyl)-3-hydroxyazetidine-1-carboxamide]	96.8	103	98.4
COc1ccc([C@@H](NC(=O)[C@H]2CNC(=O)C2)C(=O)Nc2ccc([Si](C)(C)C)c(F)c2)cc1 [Example 70, (3R)—N-((1R)-2-((3-fluoro-4-(trimethylsilyl)phenyl)amino)-1-(4-methoxyphenyl)-2-oxoethyl)-5-oxopyrrolidine-3-carboxamide]	82.8	101	96.5
COc1ccc([C@@H](NC(=O)N2CC[C@@H](O)C2)C(=O)Nc2ccc([Si](C)(C)C)c(F)c2)cc1 [Example 71, (3R)—N-((1R)-2-((3-fluoro-4-(trimethylsilyl)phenyl)amino)-1-(4-methoxyphenyl)-2-oxoethyl)-3-hydroxypyrrolidine-1-carboxamide]	89.9	101	99
COCc1ccc([C@@H](NC(=O)CCO)C(=O)Nc2cc(F)c([Si](C)(C)C)c(F)c2)cc1 [Example 72, N-((1R)-2-((3,5-difluoro-4-(trimethylsilyl)phenyl)amino)-1-(4-(methoxymethyl)phenyl)-2-oxoethyl)-3-hydroxypropanamide]	96.7	102	99.2
COCc1ccc([C@@H](NC(=O)CCC#N)C(=O)Nc2cc(F)c([Si](C)(C)C)c(F)c2)cc1 [Example 73, 3-cyano-N-((1R)-2-((3,5-difluoro-4-(trimethylsilyl)phenyl)amino)-1-(4-(methoxymethyl)phenyl)-2-oxoethyl)propanamide]	96.7	103	97.9
COCc1ccc([C@@H](NC(=O)Cc2nnc(C)o2)C(=O)Nc2cc(F)c([Si](C)(C)C)c(F)c2)cc1 [Example 74, (2R)—N-(3,5-difluoro-4-(trimethylsilyl)phenyl)-2-(4-(methoxymethyl)phenyl)-2-(((5-methyl-1,3,4-oxadiazol-2-yl)acetyl)amino)acetamide]	97.6	101	99.4
COCc1ccc([C@@H](NC(=O)Cc2cc(O)no2)C(=O)Nc2ccc([Si](C)(C)C)c(F)c2)cc1 [Example 75, (2R)—N-(3-fluoro-4-(trimethylsilyl)phenyl)-2-(((3-hydroxy-1,2-oxazol-5-yl)acetyl)amino)-2-(4-(methoxymethyl)phenyl)acetamide]	95.8	102	99.7
COCc1ccc([C@@H](NC(=O)Cc2cc(O)no2)C(=O)Nc2cc(F)c([Si](C)(C)C)c(F)c2)cc1 [Example 76, (2R)—N-(3,5-difluoro-4-(trimethylsilyl)phenyl)-2-(((3-hydroxy-1,2-oxazol-5-yl)acetyl)amino)-2-(4-(methoxymethyl)phenyl)acetamide]	98.5	103	99.3
COCc1ccc([C@H](C(=O)Nc2cc(F)c([Si](C)(C)C)c(F)c2)N(C)C(=O)c2cc(O)no2)cc1 [Example 77, N-((1R)-2-((3,5-difluoro-4-(trimethylsilyl)phenyl)amino)-1-(4-(methoxymethyl)phenyl)-2-oxoethyl)-3-hydroxy-N-methyl-1,2-oxazole-5-carboxamide]	97.3	103	99.7
COCc1ccc([C@@H](NC(=O)Cn2ccc(=O)cc2)C(=O)Nc2ccc([Si](C)(C)C)c(F)c2)cc1 [Example 78, (2R)—N-(3-fluoro-4-(trimethylsilyl)phenyl)-2-(4-(methoxymethyl)phenyl)-2-(((4-oxopyridin-1(4H)-yl)acetyl)amino)acetamide]	93.2	102	96
